Source: patent publication US20220411448A1, “CHROMENE-4-ONE DERIVATIVES AS BRAIN-DERIVED NEUROTROPHIC FACTOR (BDNF) MIMETICS” (FLORATEK PHARMA AG, priority 2019, published 2022)

Key:
TrkB receptor = assay: Activation of TrkB receptor: phosphorylation in cortical neurons (WES capillary immunoassay); format: cell-based, mouse
Method: On the day of preparation (DIV1) cortical neurons were seeded on poly-D-lysine pre-coated 6-well plates at a density of 1.25*10^6 cells per well and cultured at 37° C.; 95% humidity and 5% CO2 until […] with a half medium exchange on DIV4-6. On DIV10 cells are treated with test item TI (SND118) and control Rh (7,8DHF) at different concentrations for 15 min. The experiment was carried out with n=6 technical replicates per condition, vehicle treated cells served as control. Cells were lysed in 150 μL cold RIPA buffer [50 mM Tris pH 7.4, 1% Nonidet P40, 0.25% Na-deoxy-cholate, 150 mM NaCl, 1 mM EDTA supplemented with freshly added 1 μM NaF, 0.2 mM Na-ortho-vanadate, 80 μM Glycerophosphate, protease (Calbiochem) and phosphatase (Sigma) inhibitor cocktail.
Phosphorylation of the TrkB receptor was detected using the following rabbit anti-Tyr specific antibodies: anti-TrkB Y515, Y706/707 and Y816 and compared with total TrkB detected with anti-TrkB antibody (Abcam). Antibody dilutions and protein amounts were optimized for signal specificity.
Automated separation and immunostaining of total and phospho TrkB was carried out using a capillary-based immunoassay, WES™ (Proteinsimple®). Samples were applied to a 25 capillary cartridge with a 2 to 440 kDa matrix, at an optimized total protein concentration. Sample loading, separation, immunoprobing, washing, detection and quantitative data analysis were performed automatically by WES™ Western system (Compass software V 4.0.0). The areas under the curve were used for the analysis and the phosphorylated versus vehicle or total TrkB signal ratio was calculated and used for statistics.

[1] = tested on: organotypic hippocampal brain slices with IAA lesion; assay: Organotypic brain slices, iodoacetic acid injury: cell survival (MTT); format: cell-based, mouse; conditions: SND118 10 and 30 μM; SND124 30 μM; 7,8 DHF 10 μm; IAA 250 μM for 110 min
Method: (§1) Preparation of the organotypic brain slices were performed by decapitation of the P9/P10 mouse pups, removing skin and skull and immersing brains in slicing medium (Opti-MEM 1, […]). Brains were hemisected and hippocampi were isolated. Hippocampi were placed on the cutting disc of a McIlwain Tissue Chopper. […] hippocampal slices were chopped transversely. A number of 4 slices per hippocampus were placed on porous (0.4 μM) transparent membrane inserts (Millipore) and incubated for 1 h on ice in HBSS containing 10 mM glucose. Afterwards inserts were transferred to fresh 24-well plates containing 250-300 μl culture medium (50% MEM/EBSS, 25% horse serum, 25% CMF-HBSS, 25 mM glucose, 0.5% pen/strep). Slices were maintained at 37° C. and 5% CO2.
(§2) On DV15, brain slices were pretreated with SND derivatives test compounds and the reference 7,8DHF at various concentrations (between […]) for 30 min, followed by the addition of iodoacetic acid (IAA) at 250 μM for 110 min, when cell survival, MMP and toxicity were measured.
Cell survival was measured by the MTT assay. For the determination of mitochondrial membrane potential, treated organotypic brain slices were loaded with the mitochondrial fluorescent dye, tetramethylrhodamine methyl ester (TMRM) at a final concentration of 100 nM in PBS and incubated for 45 min at 37° C. The TMRM containing solution was aspirated and slices were transferred into new well plates containing the appropriate amount of PBS. Fluorescence was measured with a plate-reader (Cytation 5) using wavelengths of excitation and emission of 548 and 574 nm, respectively (area scan). Values were calculated as percent of control values (vehicle control). Toxicity of the treatment was measured by LDH. No toxicity was observed.

[2] = tested on: cortical neurons treated with glutamate; assay: Neuron protection from glutamate injury: mitochondrial membrane potential (rhodamine 123); format: cell-based, rat
Method: (§3) Cortices were harvested from E19 rat embryos and dissociated enzymatically and mechanically. Dissociated cells were plated in poly-D-lysine coated imaging plates (384 wells), in 70 μL of neuronal growth medium (Neurocult Neuronal Basal medium+SM1 neuronal supplements+L-glutamine+HEPES). Cells were incubated at 37° C., 5% CO2 and half of the medium was changed twice per week.
For mitochondrial membrane potential measurement (MMP) neurons were cultured 10 to 14 days in vitro, the growth medium was discarded and wells were washed with 50 μL of extracellular saline. Saline was removed and replaced by 25 μL of staining solution (rhodamine 123 in a saline solution containing 1.5 mM Calcium, pyruvate and verapamil). The cells were incubated 30 min at 37° C./5% CO2. 5 μL of a staining solution with or without the test substances at 6× concentrated was added in the wells. […]
Glutamate was prepared 6× concentrated (6 μL on top of the 30 μL) in saline or saline+test compounds 1× concentrated depending on the conditions. […] Basal MMP levels were measured for 1 minute before automated addition of the compounds or controls while recording. MMP signals were further recorded for 30 minutes to 1 hour. […]
Rhodamine 123 is a cationic fluorescent dye that is used to specifically label respiring mitochondria. […] Loss of potential will result in loss of the dye and, therefore, the fluorescence intensity.

[3] = tested on: organotypic hippocampal brain slices with IAA lesion; assay: Organotypic brain slices, iodoacetic acid injury: mitochondrial membrane potential (TMRM); format: cell-based, mouse; conditions: SND118 10 and 30 μM; SND124 30 μM; IAA 250 μM for 110 min
Method: as §1, §2
Cell survival was measured by the MTT assay. […] Fluorescence was measured with a plate-reader (Cytation 5) using wavelengths of excitation and emission of 548 and 574 nm, respectively (area scan). Values were calculated as percent of control values (vehicle control). Toxicity of the treatment was measured by LDH. […]

MAO-A = biological target: T1, MAO-A (Homo sapiens, UniProt P21397); assay: In vitro inhibition of monoamine oxidase type A (BioVision MAO-A inhibitor screening kit); format: biochemical; conditions: read-out: IC50 in vitro inhibition of MOA-A enzyme
T1 construct: purchased BioVision K796
T1 sequence (P21397 1-527): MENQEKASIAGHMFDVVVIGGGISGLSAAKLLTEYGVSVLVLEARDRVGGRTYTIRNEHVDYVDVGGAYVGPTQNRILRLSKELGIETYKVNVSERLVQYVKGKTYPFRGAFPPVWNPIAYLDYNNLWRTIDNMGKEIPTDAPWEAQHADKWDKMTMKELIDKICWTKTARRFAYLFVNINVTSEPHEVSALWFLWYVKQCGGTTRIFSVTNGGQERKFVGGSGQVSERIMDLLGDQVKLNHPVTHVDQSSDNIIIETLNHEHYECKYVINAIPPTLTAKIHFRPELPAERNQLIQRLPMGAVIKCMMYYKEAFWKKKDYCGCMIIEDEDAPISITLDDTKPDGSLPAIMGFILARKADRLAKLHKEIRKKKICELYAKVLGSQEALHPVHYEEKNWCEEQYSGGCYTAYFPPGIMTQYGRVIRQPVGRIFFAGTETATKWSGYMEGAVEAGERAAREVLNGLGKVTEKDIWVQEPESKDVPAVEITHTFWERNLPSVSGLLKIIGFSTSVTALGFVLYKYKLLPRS
Method: BioVision's MAO-A inhibitor screening kit (BioVision Cat no. K796) was used to assess inhibitory effects of the test items (TIs) on MAO-A in a fluorescent assay.
The assay was carried out according to the provided protocol: TIs were diluted to 10× with MAO-A Assay Buffer before use. 10 μl of test inhibitor (S), working solution of Inhibitor Control (IC; Clorgyline, 1 μM final in the well) and MAO-A Assay Buffer (Enzyme Control; EC) were added into assigned wells. 50 μl of diluted MAO-A Enzyme Solution was added to each well and incubated for 10 min at RT. To check the possible inhibitory effect of TIs on Developer, one well with TI was prepared parallel and incubated with 50 μl of a H2O2 mix instead of the MAO-A Enzyme Solution.
The reaction was started by adding 40 μl of the prepared substrate mix. Measurement of the fluorescence (Ex/Em=535/587 nm) was done kinetically at 25° C. for 10-30 min. Two time points (t1 and t2) in the linear range of the plot were chosen for further calculations (2 min and 6 min). The slope for all Sample Compounds [S], Enzyme Control [EC], Vehicle Control [VC] and Background Control [BC] were calculated by dividing the net ARFU (RFU2-RFU1) values by the time Δt (t2−t1). The slope obtained for the Background Control reaction was subtracted from the [S], [EC] and [VC] values. […]

[4] = tested on: cortical neurons treated with glutamate; assay: Neuron protection from glutamate injury: intracellular calcium measurement; format: cell-based, rat
Method: as §3
For Calcium measurement, the cells were cultured for 10 to 14 days in vitro, the growth medium was discarded and replaced by 25 μL of a calcium probe in a saline solution (containing 1.5 mM Calcium) for 30 min at 37° C./5% CO2. 5 μL of calcium probe in a saline solution with or without the test substances at 6× concentrated was added in the wells for the pre-treatment step. The wells were further incubated 30 min at 37° C./5% CO2
For calcium measurement, at the end of the pre-treatment, glutamate was prepared at 6× concentrated (6 μL on top of the 30 μL). The final vehicle concentration in all conditions was adjusted. Basal calcium levels was measured for 1 minute before automated addition of the compounds or controls while recording. Intracellular calcium signals was further recorded for 5 to 10 minutes at a sampling rate of around 1 point per second. Each experimental condition was tested in quadruplicate wells.

[5] = tested on: primary cultures of cerebral cortical astrocytes; conditions: glutamate 200 μM, positive control; cited from earlier work

What does the source list for O=c1cc(-c2ccccc2)oc2c(O)c(O)ccc12 [7,8DHF, 7,8-dihydroxyflavone, reference compound]?
phosphorylation of the TrkB receptor at sites Tyr 515 and Tyr 816 (TrkB receptor; 1 and 2 μM): induced a lower phosphorylation, which did not reach statistical significance; phosphorylation of TrkB at Tyr residue 706/707 versus the vehicle (TrkB receptor; SND118 2 μM): neither the derivative nor the 7,8DHF reached statistical significance; cell survival upon IAA lesion (MTT) [1]: no effect

Which “mitochondria potential increased by glutamate (rhodamine 123)” value ([2]; MK801 10 μM, control compound) does the source give for C[C@]12N[C@H](Cc3ccccc31)c1ccccc12 [MK801, [(+)-5-methyl-10,11-dihydroxy-5H-dibenzo(a,d)cyclohepten-5,10-imine], reference compound] here?
Its value is “restored”.

With CCNC(=O)Oc1ccc2c(=O)cc(-c3ccc(CCCC[P+](c4ccccc4)(c4ccccc4)c4ccccc4)cc3)oc2c1OC(=O)NCC.[Br-] [SND124, 4-[4-[7,8-Bis(ethylcarbamoyloxy)-4-oxo-chromen-2-yl]phenyl]-butyltriphenylphosphonium bromide] as the molecule, how does the “cell survival upon IAA lesion (MTT)” value [1] read?
The value was “statistically increase cell survival”.

And the “mitochondria function (MMP, TMRM) after IAA lesion” value [3]?
The value was “rescued mitochondria function”.

What about the IC50 (MAO-A) of the same molecule?
The IC50 was 20 µM.

For COc1c(O)ccc2c(=O)cc(-c3ccc(CCCC[P+](c4ccccc4)(c4ccccc4)c4ccccc4)cc3)oc12.[Br-] [SND135, (4-(4-(7-hydroxy-8-methoxy-4-oxo-4H-chromen-2-yl)phenyl)butyl)triphenylphosphonium bromide], which “calcium release induced by glutamate” value ([4]; SND135 30 μM, glutamate 30 μM) is on record?
The value was “decreased”.

And the “calcium release induced by glutamate (maximum peak of calcium kinetic)” value ([4]; SND135 10 and 30 μM, glutamate 10 and 30 μM)?
The value was “decreases calcium release”.

And the “mitochondria potential induced by glutamate (rhodamine 123)” value ([2]; SND135 between 3 and 30 μM, glutamate between 10 and 100 μM)?
The value was “decreases mitochondria potential”.

Which “increase of glucose entry” value [5] does the source give for N[C@@H](CCC(=O)O)C(=O)O [glutamate] here?
Its value is 20 to 30%.
